Experimental data as given in BindingDB's records for PubMed 10215672 (Taisho Pharmaceutical, 1999).
“And” between values parts separate entries of the source, which are not always exact repeats. Equal entries are not always repeated.

Tests used:
[1] = target: T1, Corticotropin-releasing factor receptor 1 (Rattus norvegicus, UniProt P35353)
T1 sequence (P35353 whole entry): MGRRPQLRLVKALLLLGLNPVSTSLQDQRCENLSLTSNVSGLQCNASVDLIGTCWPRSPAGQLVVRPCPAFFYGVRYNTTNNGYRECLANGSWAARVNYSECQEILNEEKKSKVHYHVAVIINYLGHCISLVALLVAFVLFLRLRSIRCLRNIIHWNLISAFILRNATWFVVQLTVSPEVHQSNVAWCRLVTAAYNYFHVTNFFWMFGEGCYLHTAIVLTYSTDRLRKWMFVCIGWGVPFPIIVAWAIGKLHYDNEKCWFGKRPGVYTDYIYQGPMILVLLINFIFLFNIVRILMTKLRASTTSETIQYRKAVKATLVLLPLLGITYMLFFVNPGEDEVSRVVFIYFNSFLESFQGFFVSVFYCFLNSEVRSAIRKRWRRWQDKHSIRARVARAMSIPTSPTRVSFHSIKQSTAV

[2] = target: Corticotropin-releasing factor receptor 2 (Rattus norvegicus, UniProt P47866)
Chain of Corticotropin-releasing factor receptor 2 (P47866 whole entry): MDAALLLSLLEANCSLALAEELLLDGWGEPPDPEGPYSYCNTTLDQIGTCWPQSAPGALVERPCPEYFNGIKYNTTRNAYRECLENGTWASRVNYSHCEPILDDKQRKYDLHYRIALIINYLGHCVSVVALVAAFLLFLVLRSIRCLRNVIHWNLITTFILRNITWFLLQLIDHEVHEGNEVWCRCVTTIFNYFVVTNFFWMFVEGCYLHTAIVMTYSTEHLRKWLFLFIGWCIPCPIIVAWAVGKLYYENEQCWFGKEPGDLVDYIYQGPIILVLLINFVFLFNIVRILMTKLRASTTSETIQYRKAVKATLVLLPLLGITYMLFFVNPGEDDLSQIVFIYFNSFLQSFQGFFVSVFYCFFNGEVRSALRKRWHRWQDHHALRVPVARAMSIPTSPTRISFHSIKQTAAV

Row | Ki [1] | Ki [2] [nM] | Structure (SMILES)
1 | 1.8 nM | > 10000 | CCCCN(CC)c1nc(C)nc2c1c(C)cn2-c1c(C)cc(C)cc1C
2 | 22.3 nM and 18.6 nM | > 10000 | CCN(c1nc(C)cc(N2CCC=C(c3cccc(F)c3)C2)n1)c1ccc(CC(C)C)cc1Br [CRA1001]
3 | 14.8 nM and 20.7 nM | > 10000 | COCCN(CCOC)c1nc(C)nc2c1nnn2-c1ccc(C(C)C)cc1Br
